# Experimental data published in PubChem BioAssay (NCI).
# Values joined by “and” are separate entries in the source; they are usually repeats but may differ in a detail not shown here. Equal entries are not always repeated.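 Assay format: 96-well plates, 48-hour exposure. GI50: concentration for 50% inhibition of growth. The concentration for full growth arrest is given as TGI.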
# System: A498 renal
# Experiment: NCI tumour cell line growth inhibition, 48 h
row,SMILES,TGI [µM]
1,NC(=O)C(=Cc1ccc(C(O)P(=O)(O)O)cc1)C(N)=O (stereo unspecified),> 100
2,O=C(Nc1cc(Cl)c(Cl)cc1Cl)C(=O)C1C=CCS1(=O)=O (stereo unspecified),> 100
3,CCNC(=O)CCN(C(=O)O)S(=O)(=O)c1ccc(NC(=O)c2ccccc2)cc1,> 100
4,O=C(/C=C/c1ccc([N+](=O)[O-])o1)N1CCN(Cc2ccccc2)CC1,29.2
5,CC1C[C@@]2(c3ccccc3)C(=O)CCC[C@H]2N1 (stereo partly specified),> 100
6,O=[N+]([O-])c1cccc(/C=N\NS(=O)(=O)c2ccc(Cl)cc2)c1O,> 100
7,CC1=C(C(=O)Nc2ccccc2C)C(c2ccc(Cl)c(Cl)c2)C(C(=O)Nc2ccccc2C)=C(C)N1,61.8
8,Cc1[nH]c2ccccc2c1C1Cc2ccccc2N1C(=O)/C=C\C(=O)O (stereo unspecified),> 100

# System: MDA-MB-231 breast
# Experiment: NCI tumour cell line growth inhibition, 48 h
SMILES,GI50 [µM],TGI [µM]
COc1cc2c(cc1OCCCOc1cc3c(cc1OC)C(=O)N1C[C@H](F)C[C@H]1C=N3)N=C[C@@H]1C[C@@H](F)CN1C2=O,16,31.3
Cc1c[nH]c2c(O)cc3c(c12)[C@H](CCl)CN3C(=O)c1cc2cc(NC(=O)Nc3ccc4[nH]c(C(=O)N5C[C@@H](CCl)c6c5cc(O)c5[nH]cc(C)c65)cc4c3)ccc2[nH]1,0.0176,54.6
Nc1ccc(N(S(=O)(=O)c2ccccc2)S(=O)(=O)c2ccccc2)c(Cl)c1,,> 100
CC(C)(C#N)c1cc(Cn2cncn2)cc(C(C)(C)C#N)c1,539,> 10000
CCOC(=O)c1cc(C#N)c(=O)n(/N=C(\C)c2ccncc2)c1O,> 100,> 100

# System: HL-60(TB) leukemia
# Experiment: NCI tumour cell line growth inhibition, 48 h
SMILES,TGI,GI50 [µM]
c1ccc2c(c1)CCC/C2=N\OCC1CO1 (stereo unspecified),92.1 µM,
CC/C(C)=C1\CCC(CN2CCOCC2)C1=O (stereo unspecified),44 µM,
COC(=O)C1C(C(=O)OC)C2(OC)c3ccccc3-c3ccccc3C12 (stereo unspecified),25.3 µM,
O=C1OC(CC(=O)c2ccc(Cl)c(Cl)c2)C(Cl)=C1Cl (stereo unspecified),> 100 µM,
CC(=O)c1cccc(N2COC(C)(C)c3nc4ccccc4n3C2)c1,> 100 µM,
O=[N+]([O-])c1cccc(C2N3CCCCC3[C@@H]3c4[nH]c5ccccc5c4CCN23)c1 (stereo partly specified),29 µM,
CCOC(=O)NC(=O)c1cn(CC(=O)NCC(=O)NCC(=O)NCCCN2CCN(CCCNC(=O)CNC(=O)CNC(=O)Cn3cc(C(=O)NC(=O)OCC)c(=O)[nH]c3=O)CC2)c(=O)[nH]c1=O,> 100 µM,
O=S(=O)(N/N=C/c1ccc(/C=N/NS(=O)(=O)c2ccccc2)cc1)c1ccccc1,53.3 µM,
CC[C@@H]1OC2(C)CC(S(=O)(=O)c3ccccc3O)CC1O2 (stereo partly specified),> 100 µM,
CCOC(=O)C(N)C[S][Sn]([CH3])([CH3])[Cl] (stereo unspecified),> 77.4 µM,> 51.4
NNC(=O)/C(=C/c1ccc(Cl)c(Cl)c1)NC(=O)c1ccccc1,> 100 µM,
CC(=O)OCC1OC(N2C(=O)C(=O)c3cc(C)ccc32)C(OC(C)=O)C(OC(C)=O)C1OC(C)=O (stereo unspecified),59.5 µM,
O=C1c2ccccc2-c2cccc3ccc(Cc4ccc5ccccc5c4)c1c23,> 100 µM,
COc1cc(Cl)c2c3c(c(C(C)=O)oc13)CCC2,> 100 µM,
CCCCc1c2c(nc3c1CCC/C3=C\c1ccccc1)C(=O)CCC2,74.3 µM,
COc1ccc([N+]2=NC(c3ccc([N+](=O)[O-])cc3)=NN(c3ccccc3)C2)cc1,83.2 µM and 69.3 µM,
C=CC1(C(=O)O)CCC(C(C)(C)C)CC1 (stereo unspecified),> 100 µM,
O=C(Nc1cc(Cl)c(Cl)cc1Cl)C(=O)C1C=CCS1(=O)=O (stereo unspecified),> 100 µM,
CCNC(=O)CCN(C(=O)O)S(=O)(=O)c1ccc(NC(=O)c2ccccc2)cc1,> 100 µM,
O=C(/C=C/c1ccc([N+](=O)[O-])o1)N1CCN(Cc2ccccc2)CC1,18.4 µM,
CC1C[C@@]2(c3ccccc3)C(=O)CCC[C@H]2N1 (stereo partly specified),> 100 µM,
O=[N+]([O-])c1cccc(/C=N\NS(=O)(=O)c2ccc(Cl)cc2)c1O,> 100 µM,
CC1=C(C(=O)Nc2ccccc2C)C(c2ccc(Cl)c(Cl)c2)C(C(=O)Nc2ccccc2C)=C(C)N1,45.4 µM,
CCCCOC(=O)NC(=O)c1cn(CCCOC(=O)CCCCCCCCC(=O)OCCCn2cc(C(=O)NC(=O)OCCCC)c(=O)[nH]c2=O)c(=O)[nH]c1=O,> 100 µM,
Cc1[nH]c2ccccc2c1C1Cc2ccccc2N1C(=O)/C=C\C(=O)O (stereo unspecified),68.2 µM,

# System: UO-31 renal
# Experiment: NCI tumour cell line growth inhibition, 48 h
SMILES,GI50 [µM],TGI [µM]
COc1cc2c(cc1OCCCOc1cc3c(cc1OC)C(=O)N1C[C@H](F)C[C@H]1C=N3)N=C[C@@H]1C[C@@H](F)CN1C2=O,13.2,26
c1ccc2c(c1)CCC/C2=N\OCC1CO1 (stereo unspecified),,> 100
CC/C(C)=C1\CCC(CN2CCOCC2)C1=O (stereo unspecified),,36.6
COC(=O)C1C(C(=O)OC)C2(OC)c3ccccc3-c3ccccc3C12 (stereo unspecified),,> 100
O=C1OC(CC(=O)c2ccc(Cl)c(Cl)c2)C(Cl)=C1Cl (stereo unspecified),,> 100
CC(=O)c1cccc(N2COC(C)(C)c3nc4ccccc4n3C2)c1,,> 100
O=[N+]([O-])c1cccc(C2N3CCCCC3[C@@H]3c4[nH]c5ccccc5c4CCN23)c1 (stereo partly specified),,25.6
Cc1c[nH]c2c(O)cc3c(c12)[C@H](CCl)CN3C(=O)c1cc2cc(NC(=O)Nc3ccc4[nH]c(C(=O)N5C[C@@H](CCl)c6c5cc(O)c5[nH]cc(C)c65)cc4c3)ccc2[nH]1,0.0291,
CCOC(=O)NC(=O)c1cn(CC(=O)NCC(=O)NCC(=O)NCCCN2CCN(CCCNC(=O)CNC(=O)CNC(=O)Cn3cc(C(=O)NC(=O)OCC)c(=O)[nH]c3=O)CC2)c(=O)[nH]c1=O,,> 100
O=S(=O)(N/N=C/c1ccc(/C=N/NS(=O)(=O)c2ccccc2)cc1)c1ccccc1,,> 100
CC[C@@H]1OC2(C)CC(S(=O)(=O)c3ccccc3O)CC1O2 (stereo partly specified),,> 100
CCOC(=O)C(N)C[S][Sn]([CH3])([CH3])[Cl] (stereo unspecified),> 100,> 100
NNC(=O)/C(=C/c1ccc(Cl)c(Cl)c1)NC(=O)c1ccccc1,,> 100
CC(=O)OCC1OC(N2C(=O)C(=O)c3cc(C)ccc32)C(OC(C)=O)C(OC(C)=O)C1OC(C)=O (stereo unspecified),,> 100
O=C1c2ccccc2-c2cccc3ccc(Cc4ccc5ccccc5c4)c1c23,,> 100
Nc1ccc(N(S(=O)(=O)c2ccccc2)S(=O)(=O)c2ccccc2)c(Cl)c1,,> 100
CCCCc1c2c(nc3c1CCC/C3=C\c1ccccc1)C(=O)CCC2,,61.8
COc1ccc([N+]2=NC(c3ccc([N+](=O)[O-])cc3)=NN(c3ccccc3)C2)cc1,,> 100
C=CC1(C(=O)O)CCC(C(C)(C)C)CC1 (stereo unspecified),,> 100
NC(=O)C(=Cc1ccc(C(O)P(=O)(O)O)cc1)C(N)=O (stereo unspecified),,> 100
CC(C)(C#N)c1cc(Cn2cncn2)cc(C(C)(C)C#N)c1,720,> 10000
O=C(Nc1cc(Cl)c(Cl)cc1Cl)C(=O)C1C=CCS1(=O)=O (stereo unspecified),,> 100
CCNC(=O)CCN(C(=O)O)S(=O)(=O)c1ccc(NC(=O)c2ccccc2)cc1,,> 100
O=C(/C=C/c1ccc([N+](=O)[O-])o1)N1CCN(Cc2ccccc2)CC1,,31.3
CC1C[C@@]2(c3ccccc3)C(=O)CCC[C@H]2N1 (stereo partly specified),,> 100
